{
  "source": "patent US20130158098A1",
  "about": "“Alkenyl Substituted Cycloaliphatic Compounds as Chemical Inducers of Proximity” (priority 2010, published 2013)",
  "key": {"[1]": {"experiment": "ABA stability in human serum (luciferase biofunctional readout)", "assay_type": "in vitro ADME", "experimental": "FIG. 3C provides the results of a stability test of ABA in cell culture conditions. CHO cells were pre-transfected with the activation and reporter DNA constructs for 24 hours. 100 μM ABA was then added to the culture and cells were assayed for luciferase activity after 10 hours. During the 10-hour incubation, the cell culture media were replaced with media containing freshly added ABA every 1, 2.5, 5 hour or no replacement. FIG. 4A illustrates the results of an experiment in which human serum pre-incubated ABA was used to induce luciferase transcription. ABA was incubated with pure non-heat inactivated human serum at 37° C. for indicated time period. ABA containing serum was then added to the CHO cell culture to a final 100 μM ABA concentration for 25 hours and cells were assayed for luciferase activity. The cells were pre-transfected with the activation and reporter DNA constructs for 24 hours. FIG. 4B illustrates the results of an experiment in which fetal bovine serum pre-incubated ABA was used to induce luciferase transcription. ABA was incubated with pure heat inactivated fetal bovine serum at 37° C. for indicated time period. ABA containing serum was then added to the CHO cell culture to a final 100 μM ABA concentration for 10 hours and cells were assayed for luciferase activity. The cells were pre-transfected with the activation and reporter DNA constructs for 24 hours.\nIn plants, ABA had been reported to be unstable due to active enzymatic degradation (Cutler, A. J. and Krochko, J. E. (1999) Formation and breakdown of ABA. Trends Plant Sci. 4, 472-478). […] The activity of residual ABA in the serum was measured by its ability to induce the transcriptional activation of the luciferase reporter in cells expressing the ABA-activator cassette. […] Using this assay, the bioavailability in mice was evaluated. […]"}, "[2]": {"experiment": "Bioavailability of ABA in mice (serum tested by luciferase activation)", "assay_type": "in vivo, mouse", "experimental": "Mice were housed in the Stanford University Research Animal Facility in accordance with federal and institutional guidelines. Mice aged 6 to 8 weeks and weighing about 30 g were orally gavaged with 10 mg of ABA in EtOH/Tween 20/Cremophor (4:3:1; […] or just vehicle with syringes. Blood was collected from the tails of mice at the indicated time after gavage and left on ice for 20 min. After blood was coagulated, the samples were spun down at 1500 g for 20 min and serum was collected for immediate use or snap-frozen and stored at −80° C.\nFIG. 5A illustrates the bio-availability of ABA in mice by intraperitoneal injection. With 100 mg ABA/kg mouse body weight, ABA is rapidly available in 30 minutes and still remains in the system after 4 hours. ABA was intraperitoneally injected to mice and serum was collected at indicated time. ABA containing serum was then added as 10% (v/v) of culture media to the CHO cell culture for 24 hours and cells were assayed for luciferase activity. The CHO cells were pre-transfected with the activation and reporter DNA constructs for 24 hours before adding serum. […] With 340 mg ABA/kg mouse body weight, ABA is rapidly available in 1 hour, remains in the system after 8 hours and returns to background level after 24 hours. ABA was orally administrated by gavage to mice and serum was collected at indicated time. ABA containing serum was then added as 10% (v/v) of culture media to the CHO cell culture for 24 hours and cells were assayed for luciferase activity. The CHO cells were pre-transfected with the activation and reporter DNA constructs for 24 hours before adding serum.\nIn plants, ABA had been reported to be unstable due to active enzymatic degradation (Cutler, A. J. and Krochko, J. E. (1999) Formation and breakdown of ABA. Trends Plant Sci. 4, 472-478). To examine its stability in mammalian cells, ABA was incubated with CHO cells for up to 48 hours, after which the functional ABA concentration was assayed by the ability of the ABA-incubated cell culture medium to induce luciferase production in cells expressing VP16-PYLcs and wild-type Gal4 DBD-ABIcs. […] For potential therapeutic application in humans, the stability of ABA in the serum and its bioavailability in mice was examined (FIG. 16B). The activity of residual ABA in the serum was measured by its ability to induce the transcriptional activation of the luciferase reporter in cells expressing the ABA-activator cassette. The stability of ABA in isolated serum was tested by incubating ABA with fresh human serum or heat-inactivated fetal bovine serum (FBS) for up to 48 hours and then applying the serum as the ABA source to activate luciferase. […] Using this assay, the bioavailability in mice was evaluated. When ABA was injected intraperitoneally, it entered circulation rapidly, and activity was detectable within 30 min (FIG. 33)."}, "[3]": {"test_system": "T cells isolated from spleens of C57BL/6J mice", "experiment": "Lymphocyte proliferation assay", "assay_type": "cell-based, mouse", "details": "anti-CD3 and anti-CD28 stimulation, 72 hours", "experimental": "Naïve T cells were isolated from spleens of C57BL/6J mice with MACS T cell isolation kit (Miltenyi Biotec). Isolated T cells were stimulated for 72 hours at 37° C. with plate-bound monoclonal antibodies against CD3 (10 μg/ml) and CD28 (2 μg/ml) before cell count measurements."}, "[4]": {"details": "intraperitoneal injection, 100 mg ABA/kg"}},
  "note": "Entries after “also recorded” stand apart in the source; their conditions may differ.",
  "data": [
    {"smiles": "CC1=CC(=O)CC(C)(C)C1(O)/C=C/C(C)=C/C(=O)O", "note": "(stereo not drawn) [ABA, abscisic acid]", "values": [
      {"measurement": "reduction in ability to induce transcription of luciferase", "setting": "[1]; pure human serum, 37° C., up to 48 hours", "value": "no significant reduction"},
      {"measurement": "time ABA is stable in human serum", "setting": "[1]; pure non-heat inactivated human serum, 37° C.", "value": "at least 46 hours"},
      {"measurement": "stability in serum", "setting": "[1]; serum, over 48 hours", "value": "stable"},
      {"measurement": "oral availability", "setting": "[2]", "value": "orally bioavailable; also recorded: orally available"},
      {"measurement": "time to detectable activity in circulation", "setting": "[2]; injected intraperitoneally", "value": "≤ 30", "unit": "min"},
      {"measurement": "time ABA still remains in the system", "setting": "[2]; [4]", "value": "≥ 4", "unit": "h"},
      {"measurement": "time at which ABA is available in serum", "setting": "[2]; [4]", "value": 30, "unit": "min"},
      {"measurement": "half-life", "setting": "[2]; mouse, serum, po, 340 mg/kg, administered orally", "value": "~4", "unit": "h"},
      {"measurement": "time ABA remains in the system", "setting": "[2]; oral gavage, 340 mg ABA/kg", "value": "≥ 8", "unit": "h"},
      {"measurement": "time at which ABA is available in serum", "setting": "[2]; oral gavage, 340 mg ABA/kg", "value": 60, "unit": "min"},
      {"measurement": "time of return to background level", "setting": "[2]; oral gavage, 340 mg ABA/kg", "value": 24, "unit": "h"},
      {"measurement": "effect upon proliferation induced by antigen receptor signaling", "setting": "[3]", "value": "No statistically significant effect; also recorded: did not have an adverse effect"}
    ]}
  ]
}
